Data as given in US7511151B2 (priority 2002, dated 2009).

Test system: Erysiphe graminis f. sp. hordei
Details: in vivo

## CC#CC(C)(C)NC(=O)C(OCC)Oc1cncc(Cl)c1 (stereo not shown) [1 (1), 2-(5-chloropyridyl-3-oxy)-2-(ethoxy)-N-(2-methylpent-3-yn-2-yl) acetamide]
  control of disease: > 60%
